Laboratory results reported in patent US20240358692A1, “TREATMENT OF SCLERODERMA” (Aisa Pharma, Inc., priority 2023, published 2024).

System: participants with SSc-RP
Test: SHAQ - Visual Analog Scale - Finger Ulcers
Format: in vivo, human
Description: The standard, validated, patient reported outcome measures tool for SSc patients, the Scleroderma Health Assessment Questionnaire (SHAQ), will be used to assess the participant qualify of life. Details are attached in the Appendix. The participant quality of life will be scored, and a disability index calculated for each questionnaire completed by the patient at Screening and each in-clinic visit. The absolute change in participant quality of life from baseline to the end of each dosing period will be calculated similar to frequency data as before.
The standard, validated, patient reported outcome measures tool for SSc patients, the SHAQ, was collected at the time points specified in the study schedules (FIG. 2 and FIGS. 4A and 4B) to assess the participant's quality of life. The SHAQ included a Raynaud's VAS that will also be reported separately.

[1] = Pooled Cilnidipine 10 mg and Cilnidipine 10 mg + Tadalafil 5 mg, PP, Part A
[2] = Pooled Cilnidipine 20 mg and Cilnidipine 20 mg + Tadalafil 5 mg, PP, Part A
[3] = Pooled Cilnidipine (N = 8), Day 12, PP Population, Part A
[4] = cilnidipine 10 mg (combination: + tadalafil 5 mg)
[5] = cilnidipine 20 mg (combination: + tadalafil 5 mg)

COCCOC(=O)C1=C(C)NC(C)=C(C(=O)OC/C=C/c2ccccc2)C1c1cccc([N+](=O)[O-])c1 (stereo not shown) [Cilnidipine]
SHAQ Visual Analogue Scale - Finger Ulcers, In-Clinic Visit (Day 12), Mean (Pooled Cilnidipine 10 mg and Cilnidipine 10 mg + Tadalafil 5 mg (N = 9), Modified ITT Population - Part A): 0.389
SHAQ VAS Finger Ulcers, Change from Baseline, Max [1]: 0.00
SHAQ VAS Finger Ulcers, Change from Baseline, Min [1]: −1.00,
SHAQ VAS Finger Ulcers, Change from Baseline, Q1 [1]: −0.500,
SHAQ VAS Finger Ulcers, Change from Baseline, Q3 [1]: 0.000
SHAQ VAS Finger Ulcers, Day 12, Max [1]: 1.50
SHAQ VAS Finger Ulcers, Day 12, Min [1]: 0.00,
SHAQ VAS Finger Ulcers, Day 12, Q1 [1]: 0.000,
SHAQ VAS Finger Ulcers, Day 12, Q3 [1]: 0.700
SHAQ VAS Finger Ulcers, Percent Change from Baseline, Max [1]: 0.0
SHAQ VAS Finger Ulcers, Percent Change from Baseline, Min [1]: −100.0,
SHAQ VAS Finger Ulcers, Percent Change from Baseline, Q1 [1]: −100.00,
SHAQ VAS Finger Ulcers, Percent Change from Baseline, Q3 [1]: −12.50
SHAQ VAS Finger Ulcers, Change from Baseline, Max [2]: 0.40
SHAQ VAS Finger Ulcers, Change from Baseline, Min [2]: −3.20,
SHAQ VAS Finger Ulcers, Change from Baseline, Q1 [2]: −2.800,
SHAQ VAS Finger Ulcers, Change from Baseline, Q3 [2]: 0.000
SHAQ VAS Finger Ulcers, Day 12, Max [2]: 5.60
SHAQ VAS Finger Ulcers, Day 12, Median [2]: 0.000
SHAQ VAS Finger Ulcers, Day 12, Min [2]: 0.00,
SHAQ VAS Finger Ulcers, Day 12, Q1 [2]: 0.000,
SHAQ VAS Finger Ulcers, Day 12, Q3 [2]: 1.900
SHAQ VAS Finger Ulcers, Percent Change from Baseline, Max [2]: 133.3
SHAQ VAS Finger Ulcers, Percent Change from Baseline, Min [2]: −100.0,
SHAQ VAS Finger Ulcers, Percent Change from Baseline, Q1 [2]: −81.37,
SHAQ VAS Finger Ulcers, Percent Change from Baseline, Q3 [2]: 50.00
SHAQ Visual Analogue Scale - Finger Ulcers, Change from Baseline, Mean (SD) [3]: −0.643 (1.2246)
SHAQ Visual Analogue Scale - Finger Ulcers, Change from Baseline, Median [3]: 0.000
SHAQ Visual Analogue Scale - Finger Ulcers, In-Clinic Visit (Day 12), Mean (SD) [3]: 0.463 (0.7170)
SHAQ Visual Analogue Scale - Finger Ulcers, In-Clinic Visit (Day 12), Median [3]: 0.000
SHAQ Visual Analogue Scale - Finger Ulcers, Percent Change from Baseline, Mean (SD) [3]: −17.08 (103.378) %
SHAQ Visual Analogue Scale - Finger Ulcers, Percent Change from Baseline, Median [3]: −50.82%
% improvement in VAS Digital Ulcers (Pooled Cilnidipine (n = 7), SHAQ, mITT Part A): 19%
SHAQ VAS Finger Ulcers, Change from Baseline, Max (Pooled Cilnidipine, PP, Part A): 0.40
SHAQ VAS Finger Ulcers, Change from Baseline, Min (Pooled Cilnidipine, PP, Part A): −3.20,
SHAQ VAS Finger Ulcers, Change from Baseline, Q1 (Pooled Cilnidipine, PP, Part A): −1.000,
SHAQ VAS Finger Ulcers, Change from Baseline, Q3 (Pooled Cilnidipine, PP, Part A): 0.000
SHAQ VAS Finger Ulcers, Day 12, Max (Pooled Cilnidipine, PP, Part A): 1.90
SHAQ VAS Finger Ulcers, Day 12, Min (Pooled Cilnidipine, PP, Part A): 0.00,
SHAQ VAS Finger Ulcers, Day 12, Q1 (Pooled Cilnidipine, PP, Part A): 0.000,
SHAQ VAS Finger Ulcers, Day 12, Q3 (Pooled Cilnidipine, PP, Part A): 0.900
SHAQ VAS Finger Ulcers, Percent Change from Baseline, Max (Pooled Cilnidipine, PP, Part A): 133.3
SHAQ VAS Finger Ulcers, Percent Change from Baseline, Min (Pooled Cilnidipine, PP, Part A): −100.0,
SHAQ VAS Finger Ulcers, Percent Change from Baseline, Q1 (Pooled Cilnidipine, PP, Part A): −81.37,
SHAQ VAS Finger Ulcers, Percent Change from Baseline, Q3 (Pooled Cilnidipine, PP, Part A): 47.22
VAS Finger Ulcers Change from Baseline Max [4]: 0.00
VAS Finger Ulcers Change from Baseline Median [4]: −0.350
VAS Finger Ulcers Change from Baseline Min [4]: −1.00
VAS Finger Ulcers Change from Baseline Q1 [4]: −0.850
VAS Finger Ulcers Change from Baseline Q3 [4]: 0.000
VAS Finger Ulcers Day 12 Max [4]: 1.10
VAS Finger Ulcers Day 12 Median [4]: 0.000
VAS Finger Ulcers Day 12 Min [4]: 0.00
VAS Finger Ulcers Day 12 Q1 [4]: 0.000
VAS Finger Ulcers Day 12 Q3 [4]: 0.550
VAS Finger Ulcers Percent Change from Baseline Mean [4]: −69.44%
VAS Finger Ulcers Percent Change from Baseline Median [4]: −69.44%
VAS Finger Ulcers Percent Change from Baseline Min [4]: −100.0%
VAS Finger Ulcers Percent Change from Baseline Q1 [4]: −100.00%
VAS Finger Ulcers Change from Baseline Max [5]: 0.40
VAS Finger Ulcers Change from Baseline Mean [5]: −0.933
VAS Finger Ulcers Change from Baseline Median [5]: 0.000
VAS Finger Ulcers Change from Baseline Min [5]: −3.20
VAS Finger Ulcers Change from Baseline Q1 [5]: −3.200
VAS Finger Ulcers Change from Baseline Q3 [5]: 0.400
VAS Finger Ulcers Day 12 Max [5]: 1.90
VAS Finger Ulcers Day 12 Median [5]: 0.700
VAS Finger Ulcers Day 12 Min [5]: 0.00
VAS Finger Ulcers Day 12 Q1 [5]: 0.000
VAS Finger Ulcers Day 12 Q3 [5]: 1.900
VAS Finger Ulcers Percent Change from Baseline Max [5]: 133.3%
VAS Finger Ulcers Percent Change from Baseline Mean [5]: 35.29%
VAS Finger Ulcers Percent Change from Baseline Median [5]: 35.29%
VAS Finger Ulcers Percent Change from Baseline Min [5]: −62.7%
VAS Finger Ulcers Percent Change from Baseline Q1 [5]: −62.75%
VAS Finger Ulcers Percent Change from Baseline Q3 [5]: 133.33%
